# Patent US11946092B2, “Method for producing 2-keto-3-deoxygluconate from 2-(acetylamino)-2-deoxy-d-gluconic acid by two enzymes” (SHANDONG UNIVERSITY, priority 2022, dated 2024)
# Tested on: deacetylase OngB
# Test: Substrate specificity analysis of OngB (acetate production)
# Format: biochemical, Pseudoalteromonas prydzensis ACAM 620
# Conditions: 5 μM OngB, 25 mM substrate, 10 mM Bis-Tris-HCl (pH 7.5), 25° C., 30 min; FIG. 4A
# Description: Substrate specificity assays were performed with GlcNAc1A, GlcNAc, GlcNAc-6-P, N-acetyl-D-glutamate and N-acetyl-D-serine. Standard reaction system contained 5 μM OngB, 25 mM substrate and 10 mM Bis-Tris-HCl (pH 7.5). Reactions were conducted at 25° C. for 30 min. The production of acetate in the reaction mixture was determined with an Acetic Acid (ACS Analyser Format) Assay Kit. One unit of enzyme (U) is defined as the amount of enzyme required to release 1 μmol of acetate per minute.
row,SMILES,OngB activity towards substrate (production of acetate)
1,"CC(=O)N[C@@H](C(=O)O)[C@@H](O)[C@H](O)[C@H](O)CO [GlcNAc1A, 2-(acetylamino)-2-deoxy-D-gluconic acid]",high substrate specificity
2,"CC(=O)N[C@H]1C(O)O[C@H](CO)[C@@H](O)[C@@H]1O (stereo partly drawn) [GlcNAc, N-acetyl-D-glucosamine]",little or no activity
3,CC(=O)N[C@@H]1[C@@H](O)[C@H](O)[C@@H](COP(=O)(O)O)O[C@@H]1O [GlcNAc-6-P],little or no activity
4,CC(=O)N[C@H](CCC(=O)O)C(=O)O [N-acetyl-D-glutamate],little or no activity
5,CC(=O)N[C@H](CO)C(=O)O [N-acetyl-D-serine],little or no activity

# Tested on: deaminase OngC
# Test: Substrate specificity analysis of OngC (ammonia production)
# Format: biochemical, Pseudoalteromonas prydzensis ACAM 620
# Conditions: 0.5 μM OngC, 10 mM substrate, 10 mM Bis-Tris-HCl (pH 7.5), 25° C., 30 min; FIG. 4B
# Description: Substrate specificity assays were performed with GlcN1A, D-glucosamine, D-galactosamine and D-mannosamine. GlcN1A was prepared by incubating 10 μM OngB with 10 mM GlcNAc1A in 10 mM Bis-Tris-HCl (pH 7.5) at 25° C. for 4 h. Standard reaction system contained 0.5 μM OngC, 10 mM substrate and 10 mM Bis-Tris-HCl (pH 7.5). Reactions were conducted at 25° C. for 30 min. The production of ammonia in the reaction mixture was determined with an AMMONIA (Rapid) ASSAY PROCEDURE. One unit of enzyme (U) is defined as the amount of enzyme required to release 1 μmol of ammonia per minute.
row,SMILES,OngC activity towards substrate (production of ammonia)
1,N[C@H]1C(O)O[C@H](CO)[C@H](O)[C@@H]1O (stereo partly drawn) [D-galactosamine],little or no activity
2,N[C@H]1C(O)O[C@H](CO)[C@@H](O)[C@@H]1O (stereo partly drawn) [D-glucosamine],little or no activity
3,N[C@@H]1C(O)O[C@H](CO)[C@@H](O)[C@@H]1O (stereo partly drawn) [D-mannosamine],little or no activity
4,"N[C@@H](C(=O)O)[C@@H](O)[C@H](O)[C@H](O)CO [GlcN1A, 2-(amino)-2-deoxy-D-gluconic acid]",high substrate specificity
